Measured values as given in the supplement of paper PMC10307832.

Experiments:
Assay in all cases: relative viability (nuclei count vs DMSO), 5 days (fraction); higher = more cells survive
[1] = compound: C=CC(=O)N1CCC[C@@H](n2nc(-c3ccc(Oc4ccccc4)cc3)c3c(N)ncnc32)C1 [Ibrutinib] + COc1cccc2cc(-c3nc([C@H]4CC[C@H](C(=O)O)CC4)n4ncnc(N)c34)[nH]c12 [OSI-027] (partner 0.5 µM)
How it was run: (§1)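 Relative viability was taken as the ratio of nuclei in treated wells to nuclei in vehicle wells. Lung cancer cell lines in 1536-well plates received compounds by pin tool one day after seeding, either one drug alone or a fixed anchor-drug dose plus five library-drug doses (not always all listed) in √10 steps. Nuclei were counted on 4× images after 5 days of treatment, and values are medians of duplicate plates.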

[2] = compound: C=CC(=O)N1CCC[C@@H](n2nc(-c3ccc(Oc4ccccc4)cc3)c3c(N)ncnc32)C1 [Ibrutinib] + C[C@@H](Oc1cc(-c2cnn(C3CCNCC3)c2)cnc1N)c1c(Cl)ccc(F)c1Cl [Crizotinib] (partner 1 µM)
How it was run: as §1

[3] = compound: C=CC(=O)Nc1cc(-n2c(=O)ccc3cnc4ccc(-c5ccc(NS(C)(=O)=O)cc5)cc4c32)ccc1C [BMX-IN-1] + O=C(c1cc(Cc2n[nH]c(=O)c3ccccc23)ccc1F)N1CCN(C(=O)C2CC2)CC1 [Olaparib] (partner 8 µM)
How it was run: as §1

[4] = compound: C=CCc1cccc(/C=N/NC(=O)CN2CCN(Cc3ccccc3)CC2)c1O [PAC-1] + Cc1cc(Nc2cc(N3CCN(C)CC3)nc(Sc3ccc(NC(=O)C4CC4)cc3)n2)n[nH]1 [Tozasertib] (partner 0.1 µM)
How it was run: as §1

For SK-MES-1, which relative viability ([1]; first compound 0.005 µM) is on record?
Its relative viability is 0.584.

What about the relative viability ([1]; first compound 0.01581 µM) of the same cell line?
Its relative viability is 0.568.

And the relative viability ([1]; first compound 0.05 µM)?
Its relative viability is 0.584.

What about the relative viability ([1]; first compound 0.1581 µM) of the same cell line?
The relative viability was 0.687.

And the relative viability ([1]; first compound 0.5 µM)?
Its relative viability is 0.357.

And the relative viability ([2]; first compound 0.005 µM)?
The relative viability was 0.984.

What about the relative viability ([2]; first compound 0.01581 µM) of the same cell line?
The relative viability was 0.907.

What about the relative viability ([2]; first compound 0.05 µM) of the same cell line?
The relative viability was 1.02.

And the relative viability ([2]; first compound 0.5 µM)?
The relative viability was 0.555.

And the relative viability ([3]; first compound 0.02 µM)?
The relative viability was 0.754.

And the relative viability ([3]; first compound 0.2 µM)?
The relative viability was 0.811.

And the relative viability ([3]; first compound 0.6325 µM)?
The relative viability was 0.961.

And the relative viability ([3]; first compound 2 µM)?
The relative viability was 0.625.

And the relative viability ([4]; first compound 0.02 µM)?
The relative viability was 0.9.

What about the relative viability ([4]; first compound 0.06325 µM) of the same cell line?
Its relative viability is 0.916.

And the relative viability ([4]; first compound 0.2 µM)?
Its relative viability is 0.892.

What about the relative viability ([4]; first compound 2 µM) of the same cell line?
Its relative viability is 0.916.
